Experimental data from patent US20050112573A1, “Method of detecting toxic substance” (priority 2001, published 2005).

Test system: yeast genes (level of expressed mRNA)
Experiment: DNA chip analysis of expressed mRNA of yeast genes after 2 h culture with a toxic chemical substance
Format: cell-based, Saccharomyces cerevisiae S288C
Details: for The level of expressed mRNA in the presence of chemical substance/ (ratio to absence): transport facilitation protein gene; for The level of expressed mRNA in the presence of chemical substance/: ratio to no chemical; for The level of expressed mRNA in the presence of chemical substance/ in its absence, gene YDL078C: yeast gene YDL078C
Method in brief: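 Values are treated-to-control fluorescence ratios from a whole-yeast-genome DNA chip (65° C, over 12 h hybridization) using Cy3/Cy5-labelled cDNA from mRNA. Log-phase S288C cells in YPD at 25° C were exposed 2 h to a toxicant at sublethal, growth-inhibiting concentration.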

With sodium dodecylbenzosulfonate [(17)] the “The level of expressed mRNA in the presence of chemical substance/ (ratio to absence), gene YBR122C” value (yeast gene YBR122C, mitochondria-located protein genes, 2 h culture with chemical) was 0.9, the “The level of expressed mRNA in the presence of chemical substance/ (ratio to absence)” value (yeast gene YBR127C) was 0.8 and the “The level of expressed mRNA in the presence of chemical substance/ (ratio to absence)” value (yeast gene YBR132C) was 1.1. For the same substance, the “The level of expressed mRNA in the presence of chemical substance/in the absence of chemical substance” value (yeast gene YBR149W) was 2.1, the “The level of expressed mRNA in the presence of chemical substance/ (ratio to absence)” value (yeast gene YBR207W) was 1.2 and the “The level of expressed mRNA in the presence of chemical substance/The level of expressed mRNA in the absence of chemical substance” value (yeast gene YBR214W) was 1.1. The “The level of expressed mRNA in the presence of chemical substance/ (ratio to absence)” value (yeast gene YBR241C) was 1.0, the “The level of expressed mRNA in the presence of chemical substance/ (ratio to absence), gene YBR251W” value (yeast gene YBR251W, mitochondria-located protein genes, 2 h culture with chemical) was 0.9 and the “The level of expressed mRNA in the presence of chemical substance/in the absence of chemical substance” value (yeast gene YBR256C) was 2.6. For the same substance, the “The level of expressed mRNA in the presence of chemical substance/” value (yeast gene YBR269C) was 1.5, the “The level of expressed mRNA in the presence of chemical substance/” value (yeast gene YBR280C) was 1.1 and the “The level of expressed mRNA in the presence of chemical substance/in the absence of chemical substance” value (yeast gene YBR284W) was 1.1. For the same substance, the “The level of expressed mRNA in the presence of chemical substance/” value (yeast gene YBR285W) was 2.5, the “The level of expressed mRNA in the presence of chemical substance/ (ratio to absence)” value (yeast gene YBR291C) was 0.9 and the “The level of expressed mRNA in the presence of chemical substance/” value (yeast gene YBR292C) was 0.9. For the same substance, the “The level of expressed mRNA in the presence of chemical substance/ (ratio to absence)” value (yeast gene YBR293W) was 1.0, the “The level of expressed mRNA in the presence of chemical substance/in the absence of chemical substance” value (yeast gene YBR294W) was 1.0 and the “The level of expressed mRNA in the presence of chemical substance/ (ratio to absence)” value (yeast gene YBR295W) was 1.3. For the same substance, the “The level of expressed mRNA in the presence of chemical substance/in the absence of chemical substance” value (yeast gene YBR296C) was 3.8, the “The level of expressed mRNA in the presence of chemical substance/ (in its absence), gene YBR298C” value (yeast gene YBR298C, ratio of DNA chip fluorescence intensity to that without chemical substance) was 0.9 and the “The level of expressed mRNA in the presence of chemical substance/in the absence of chemical substance” value (yeast gene YCL018W) was 1.3. The “The level of expressed mRNA in the presence of chemical substance/The level of expressed mRNA in the absence of chemical substance” value (yeast gene YCL020W) was 0.9, the “The level of expressed mRNA in the presence of chemical substance/ (ratio to absence)” value (yeast gene YCL025C) was 0.6 and the “The level of expressed mRNA in the presence of chemical substance/The level of expressed mRNA in the absence of chemical substance” value (yeast gene YCL027W) was 0.7. The “The level of expressed mRNA in the presence of chemical substance/ (ratio to absence)” value (yeast gene YCL038C) was 1.4, the “The level of expressed mRNA in the presence of chemical substance/in the absence of chemical substance” value (yeast gene YCL040W) was 1.4 and the “The level of expressed mRNA in the presence of chemical substance/in the absence of chemical substance” value (yeast gene YCL043C) was 0.9. For the same substance, the “The level of expressed mRNA in the presence of chemical substance/in the absence of chemical substance” value (yeast gene YCL050C) was 1.0, the “The level of expressed mRNA in the presence of chemical substance/ (ratio to absence)” value (yeast gene YCL069W) was 1.0 and the “The level of expressed mRNA in the presence of chemical substance/The level of expressed mRNA in the absence of chemical substance” value (yeast gene YCR004C) was 1.4. For the same substance, the “The level of expressed mRNA in the presence of chemical substance/in the absence of chemical substance” value (yeast gene YCR012W) was 0.8, the “The level of expressed mRNA in the presence of chemical substance/ (ratio to absence)” value (yeast gene YCR024C-A) was 0.9 and the “The level of expressed mRNA in the presence of chemical substance/ (ratio to absence)” value (yeast gene YCR037C) was 1.4. The “The level of expressed mRNA in the presence of chemical substance/ (ratio to absence), gene YCR046C” value (yeast gene YCR046C, mitochondria-located protein genes, 2 h culture with chemical) was 1.3, the “The level of expressed mRNA in the presence of chemical substance/The level of expressed mRNA in the absence of chemical substance” value (yeast gene YCR071C) was 1.2 and the “The level of expressed mRNA in the presence of chemical substance/ (ratio to absence), gene YCR083W” value (yeast gene YCR083W, mitochondria-located protein genes, 2 h culture with chemical) was 1.3. For the same substance, the “The level of expressed mRNA in the presence of chemical substance/ (ratio to absence of chemical substance)” value (yeast gene YCR083W, stress protein genes, DNA chip) was 1.3, the “The level of expressed mRNA in the presence of chemical substance/The level of expressed mRNA in the absence of chemical substance” value (yeast gene YCR088W) was 1.4 and the “The level of expressed mRNA in the presence of chemical substance/ (ratio to absence)” value (yeast gene YCR098C) was 1.7. The “The level of expressed mRNA in the presence of chemical substance/in the absence of chemical substance” value (yeast gene YCR107W) was 1.3, the “The level of expressed mRNA in the presence of chemical substance/The level of expressed mRNA in the absence of chemical substance” value (yeast gene YDL008W) was 1.5 and the “The level of expressed mRNA in the presence of chemical substance/in the absence of chemical substance” value (yeast gene YDL010W) was 1.5. For the same substance, the “The level of expressed mRNA in the presence of chemical substance/in the absence of chemical substance” value (yeast gene YDL021W) was 1.9, the “The level of expressed mRNA in the presence of chemical substance/in the absence of chemical substance” value (yeast gene YDL024C) was 0.9 and the “The level of expressed mRNA in the presence of chemical substance/ in its absence, gene YDL067C” value (yeast gene YDL067C, energy system protein genes, 2 h culture with the chemical, ratio to control without chemical) was 1.2. The “The level of expressed mRNA in the presence of chemical substance/ (ratio to absence), gene YDL067C” value (yeast gene YDL067C, mitochondria-located protein genes, 2 h culture with chemical) was 1.2, the “The level of expressed mRNA in the presence of chemical substance/ in its absence, gene YDL078C” value (energy system protein genes, 2 h culture with the chemical, ratio to control without chemical) was 1.1 and the “The level of expressed mRNA in the presence of chemical substance/ in its absence, gene YDL078C” value (ratio of DNA chip fluorescence intensity to that without chemical substance) was 1.1. The “The level of expressed mRNA in the presence of chemical substance/in the absence of chemical substance” value (yeast gene YDL095W) was 0.7, the “The level of expressed mRNA in the presence of chemical substance/” value (yeast gene YDL113C) was 1.2 and the “The level of expressed mRNA in the presence of chemical substance/” value (yeast gene YDL123W) was 1.1. The “The level of expressed mRNA in the presence of chemical substance/in the absence of chemical substance” value (yeast gene YDL124W) was 2.2, the “The level of expressed mRNA in the presence of chemical substance/ (ratio to absence)” value (yeast gene YDL128W) was 0.9 and the “The level of expressed mRNA in the presence of chemical substance/ (ratio to absence)” value (yeast gene YDL149W) was 0.8. For the same substance, the “The level of expressed mRNA in the presence of chemical substance/in the absence of chemical substance” value (yeast gene YDL174C) was 2.2, the “The level of expressed mRNA in the presence of chemical substance/ (ratio to absence)” value (yeast gene YDL198C) was 1.5 and the “The level of expressed mRNA in the presence of chemical substance/ (ratio to absence)” value (yeast gene YDL206W) was 1.0. The “The level of expressed mRNA in the presence of chemical substance/ (ratio to absence)” value (yeast gene YDL210W) was 1.1, the “The level of expressed mRNA in the presence of chemical substance/ (in its absence), gene YDL215C” value (yeast gene YDL215C, ratio of DNA chip fluorescence intensity to that without chemical substance) was 1.1 and the “The level of expressed mRNA in the presence of chemical substance/” value (yeast gene YDL234C) was 2.3. The “The level of expressed mRNA in the presence of chemical substance/The level of expressed mRNA in the absence of chemical substance” value (yeast gene YDL238C) was 1.1, the “The level of expressed mRNA in the presence of chemical substance/” value (yeast gene YDL242W) was 0.9 and the “The level of expressed mRNA in the presence of chemical substance/in the absence of chemical substance” value (yeast gene YDL243C) was 1.8. The “The level of expressed mRNA in the presence of chemical substance/in the absence of chemical substance” value (yeast gene YDL245C) was 1.0, the “The level of expressed mRNA in the presence of chemical substance/ (ratio to absence)” value (yeast gene YDL245C) was 1.0 and the “The level of expressed mRNA in the presence of chemical substance/in the absence of chemical substance” value (yeast gene YDL246C) was 1.8. The “The level of expressed mRNA in the presence of chemical substance/in the absence of chemical substance” value (yeast gene YDR001C) was 1.1, the “The level of expressed mRNA in the presence of chemical substance/” value (yeast gene YDR018C) was 0.9 and the “The level of expressed mRNA in the presence of chemical substance/ (ratio to absence)” value (yeast gene YDR038C) was 1.3. For the same substance, the “The level of expressed mRNA in the presence of chemical substance/ (ratio to absence)” value (yeast gene YDR039C) was 1.1, the “The level of expressed mRNA in the presence of chemical substance/ (ratio to absence)” value (yeast gene YDR040C) was 1.4 and the “The level of expressed mRNA in the presence of chemical substance/The level of expressed mRNA in the absence of chemical substance” value (yeast gene YDR055W) was 2.0. The “The level of expressed mRNA in the presence of chemical substance/” value (yeast gene YDR056C) was 1.2, the “The level of expressed mRNA in the presence of chemical substance/in the absence of chemical substance” value (yeast gene YDR058C) was 1.1 and the “The level of expressed mRNA in the presence of chemical substance/in the absence of chemical substance” value (yeast gene YDR072C) was 1.9. For the same substance, the “The level of expressed mRNA in the presence of chemical substance/ (in its absence), gene YDR073W” value (yeast gene YDR073W, ratio of DNA chip fluorescence intensity to that without chemical substance) was 1.8, the “The level of expressed mRNA in the presence of chemical substance/ in its absence, gene YDR079W” value (yeast gene YDR079W, energy system protein genes, 2 h culture with the chemical, ratio to control without chemical) was 1.1 and the “The level of expressed mRNA in the presence of chemical substance/ (ratio to absence), gene YDR079W” value (yeast gene YDR079W, mitochondria-located protein genes, 2 h culture with chemical) was 1.1. For the same substance, the “The level of expressed mRNA in the presence of chemical substance/The level of expressed mRNA in the absence of chemical substance” value (yeast gene YDR084C) was 2.0, the “The level of expressed mRNA in the presence of chemical substance/The level of expressed mRNA in the absence of chemical substance” value (yeast gene YDR085C) was 1.3 and the “The level of expressed mRNA in the presence of chemical substance/The level of expressed mRNA in the absence of chemical substance” value (yeast gene YDR104C) was 0.9. The “The level of expressed mRNA in the presence of chemical substance/The level of expressed mRNA in the absence of chemical substance” value (yeast gene YDR115W) was 1.2, the “The level of expressed mRNA in the presence of chemical substance/in the absence of chemical substance” value (yeast gene YDR127W) was 0.9 and the “The level of expressed mRNA in the presence of chemical substance/” value (yeast gene YDR132C) was 1.0. The “The level of expressed mRNA in the presence of chemical substance/” value (yeast gene YDR154C) was 1.5, the “The level of expressed mRNA in the presence of chemical substance/in the absence of chemical substance” value (yeast gene YDR158W) was 1.0 and the “The level of expressed mRNA in the presence of chemical substance/” value (yeast gene YDR202C) was 1.0. The “The level of expressed mRNA in the presence of chemical substance/in the absence of chemical substance” value (yeast gene YDR204W) was 1.1, the “The level of expressed mRNA in the presence of chemical substance/” value (yeast gene YDR223W) was 0.9 and the “The level of expressed mRNA in the presence of chemical substance/The level of expressed mRNA in the absence of chemical substance” value (yeast gene YDR259C) was 1.0. For the same substance, the “The level of expressed mRNA in the presence of chemical substance/in the absence of chemical substance” value (yeast gene YDR261C) was 0.9, the “The level of expressed mRNA in the presence of chemical substance/ (ratio to absence)” value (yeast gene YDR270W) was 0.9 and the “The level of expressed mRNA in the presence of chemical substance/in the absence of chemical substance” value (yeast gene YDR272W) was 1.4. The “The level of expressed mRNA in the presence of chemical substance/” value (yeast gene YDR295C) was 0.8 and the “The level of expressed mRNA in the presence of chemical substance/ (in its absence), gene YDR297W” value (yeast gene YDR297W, ratio of DNA chip fluorescence intensity to that without chemical substance) was 1.9.
